pIC50: −log10 of the molar value.
System: HCT116 cells
Test: Cell viability assay (CellTiter-Glo, 72 hours) in HCT116 human colorectal cancer cells
Format: cell-based
Conditions: Homo sapiens, HCT-116; Table 3; HCT116, 72 hours; read-out: Activity
Procedure: Cell culture: The HCT116 cell line was obtained from ATCC and cultured in Dulbecco's Modified Eagle's Medium (DMEM)-high glucose (Sigma Aldrich #D5796) supplemented with 10% fetal bovine serum (FBS) (Sigma-Aldrich #F2442) and 2 mM L-Glutamine (Sigma Aldrich #G7513). Cells were cultured at 37° C. in 5% CO2. The identity of all cell lines was confirmed by short tandem repeat (STR) analysis and confirmed to be mycoplasma-free using a PCR based assay (Genatlantis).
Cell viability assay: In 96-well assay plates (Corning #2903), 2,000 cells were plated per well in 100 μL of medium and allowed to adhere overnight. The next day, compounds suspended in DMSO were dispensed to the assayed wells using a D300e Digital Dispenser (Tecan). All wells were normalized to 0.5% DMSO. 72 hours after incubation at 37° C. in 5% CO2, cell viability was assayed using an ATP-based luminescent viability assay, CellTiter-Glo (Promega #G8462). Substrate was mixed 1:1 with phosphate-buffered saline (PBS) supplemented with 1% Triton X-100, and 40 μL of this mixture was added to the assay wells. Plates were shaken on a microplate shaker for 10 minutes at room temperature. Luminescence (CellTiter-Glo) was recorded using a Synergy 2 microplate reader (BioTek). In Prism 9 software (GraphPad), ten-point dose response curves were plotted with baseline-correction to the vehicle control well, and IC50 values were calculated by curve fitting using asymmetric (five parameter), least squares fit.

Row | pIC50 | SMILES
1 | > 6.30 | C#CCOCCN1C(=O)c2ccccc2Sc2cc(NC(=O)NC3CCCCC3)ccc21 [Table 3: —(CH2)2OCH2CCH; cHex; CH/CH, 1-Cyclohexyl-3-(11-oxo-10-(2-(prop-2-yn-1-yloxy)ethyl)-10,11-dihydrodibenzo[b,f][1,4]thiazepin-7-yl) urea]

Same assay, conditions: Homo sapiens, HCT-116; Table 5; HCT116, 72 hours; read-out: Activity

Row | pIC50 | SMILES
2 | > 6.30 | CC#CCN1C(=O)c2ccccc2Sc2cc(Nc3cc(C#N)ccn3)ccc21 [2-((10-(But-2-yn-1-yl)-11-oxo-10,11-dihydrodibenzo[b,f][1,4]thiazepin-7-yl)amino) isonicotinonitrile]
3 | > 6.30 | CC#CCN1C(=O)c2ccc(C#N)cc2Sc2cc(Nc3nccc(C#N)c3C)ccc21 [10-(But-2-yn-1-yl)-7-((4-cyano-3-methylpyridin-2-yl)amino)-11-oxo-10,11-dihydrodibenzo[b,f][1,4]thiazepine-3-carbonitrile]
4 | > 6.30 | CCC/C=C/CN1C(=O)c2ccccc2Sc2cc(Nc3cc(OC)ccn3)ccc21 [(E)-10-(Hex-2-en-1-yl)-7-((4-methoxypyridin-2-yl)amino)dibenzo[b,f][1,4]thiazepin-11 (10H)-one]
5 | > 6.30 | CCC/C=C/CN1C(=O)c2ccccc2Sc2cc(Nc3ncccc3C#N)ccc21 [(E)-2-((10-(Hex-2-en-1-yl)-11-oxo-10,11-dihydrodibenzo[b,f][1,4]thiazepin-7-yl)amino) nicotinonitrile]
6 | > 6.30 | CC#CCN1C(=O)c2ccccc2Sc2cc(Nc3ncc(C)cc3C)ccc21 [10-(But-2-yn-1-yl)-7-((3,5-dimethylpyridin-2-yl)amino)dibenzo[b,f][1,4]thiazepin-11 (10H)-one]

Same assay, conditions: Homo sapiens, HCT-116; Table 6; HCT116, 72 hours; read-out: Activity

Row | pIC50 | SMILES
7 | > 6.30 | CC#CCN1C(=O)c2ccccc2Sc2cc(NC3CCCC3)cnc21 [Table 6: —CH2CCMe; cPent; CH/N; S, 11-(But-2-yn-1-yl)-3-(cyclopentylamino)benzo[f]pyrido[3,2-b][1,4]thiazepin-10(11H)-one]

Same assay, conditions: Table 3; HCT116, 72 hours; read-out: Activity

Row | pIC50 | SMILES
8 | > 6.30 | CC#CCN1C(=O)c2ccccc2Sc2cc(NC(=O)Nc3ccc(OC)cc3)ccc21 [Table 3: —CH2CCMe; 4-MeOPh; CH/CH]
9 | > 6.30 | CC#CCN1C(=O)c2ccccc2Sc2cc(NC(=O)N[C@H]3C[C@H](O)C3)cnc21 [Table 3: —CH2CCMe; trans-3-OH-cBu; CH/N]

Same assay, conditions: Table 4; HCT116, 72 hours; read-out: Activity

Row | pIC50 | SMILES
10 | > 6.30 | CC#CCN1C(=O)c2ccccc2Sc2cc(NC(=S)Nc3ccc4oc(=O)n(C)c4c3)cnc21

Same assay, conditions: Table 5; HCT116, 72 hours; read-out: Activity

Row | pIC50 | SMILES
11 | > 6.30 | CC#CCN1C(=O)c2ccccc2Sc2cc(Nc3nccc(C#N)c3C)cnc21
12 | > 6.30 | CC#CCN1C(=O)c2ccccc2Sc2cc(Nc3nc(C)ccc3F)cnc21

Row | SMILES | pIC50
13 | CCCC=CCN1C(=O)c2ccccc2Sc2cc(Nc3ncccc3F)cnc21 | > 6.30

Same assay, conditions: Table 6; HCT116, 72 hours; read-out: Activity

Row | pIC50 | SMILES
14 | > 6.30 | CC#CCN1C(=O)c2ccccc2Cc2cc(NC3CC4(CC(O)C4)C3)ccc21 (stereo not drawn)
15 | > 6.30 | CC#CCN1C(=O)c2ccccc2Sc2cc(NCCCOC)ccc21 [Table 6: —CH2CCMe; (CH2)3OMe; CH/CH; S]
16 | > 6.30 | O=C1c2ccccc2Sc2cc(NC3CC4(COC4)C3)cnc2N1CC#CCl
17 | > 6.30 | O=C1c2ccccc2Sc2cc(NC3COC3)cnc2N1CC#CCl [Table 6: —CH2CCCl; oxetan-3-yl; CH/N; S]

Same assay, conditions: Table 7; cell viability assay, CellTiter-Glo, 72 hours; scaffold drawing 42 with R^2, R^3, X/Y, Z; read-out: Activity

Row | pIC50 | SMILES
18 | 5.30 to 6.00 | COCCN1C(=O)c2ccccc2Sc2cc(NC(=O)c3cnccn3)ccc21 [—(CH2)2OMe; pyrazin-2-yl; CH/CH; S]
19 | > 6.30 | COCCN1C(=O)c2ccccc2Sc2cc(NC(=O)c3cccc(OCF)c3)ccc21 [—(CH2)2OMe; 3-FH2COPh; CH/CH; S]
20 | 5.30 to 6.00 | C#Cc1cc(C(=O)Nc2ccc3c(c2)Sc2ccccc2C(=O)N3CCOC)ccn1 [—(CH2)2OMe; 2-(HCC)pyrid-4-yl; CH/CH; S]
21 | > 6.30 | C#CCOCCN1C(=O)c2ccccc2Sc2cc(NC(=O)c3ccc4scnc4c3)ccc21
22 | 5.30 to 6.00 | COCCN1C(=O)c2ccccc2Sc2cc(NC(=O)c3ccc4ncoc4c3)ccc21

Same assay, conditions: Table 8; analogs of scaffold drawing 43 defined by R^2, R^3, X/Y, W; read-out: Activity (IC50 class, cell viability assay)

Row | SMILES | pIC50
23 | CC#CCN1C(=O)c2cc(F)ccc2Sc2cc(NC(=O)C3CCCO3)ccc21 (stereo not drawn) | > 6.30
24 | COC(=O)[C@@H]1C[C@H]1C(=O)Nc1cnc2c(c1)Sc1ccccc1C(=O)N2CC#CC1CC1 (relative stereo) [—CH2CC^cPr; trans-2-MeO2C-cPr; CH/CH; N] | > 6.30
25 | COCC1CC(C(=O)Nc2cnc3c(c2)Sc2ccccc2C(=O)N3CC#CC(F)(F)F)C1 (stereo not drawn) [—CH2CCCF3; 3-MeOCH2-cBu; CH/CH; N] | > 6.30
26 | CC#CCN1C(=O)c2ccccc2Sc2cc(NC(=O)C3CC4(CC(=NOC)C4)C3)cnc21 (stereo not drawn) | > 6.30
27 | CC#CCN1C(=O)c2ccccc2Sc2cc(NC(=O)NCCOC)cnc21 [—CH2CCMe; NH(CH2)2OMe; CH/CH; N] | > 6.30
28 | CC#CCN1C(=O)c2ccc(Cl)cc2Sc2cc(NC(=O)C3CCOC3)cnc21 (stereo not drawn) | > 6.30
29 | COc1ccc(C(=O)Nc2ccc3c(c2)Sc2ccccc2C(=O)N3CC#CC(F)(F)F)cc1 [—CH2CCCF3; 4-MeOPh; CH/CH; CH] | > 6.30
30 | CC#CCN1C(=O)c2ccccc2Sc2cc(NC(=O)c3ccc(OC)cc3)cnc21 [—CH2CCMe; 4-MeOPh; CH/CH; N] | > 6.30
31 | CC#CCN1C(=O)c2ccccc2Sc2cc(NC(=O)C3CCOC3)ccc21 (stereo not drawn) | > 6.30
32 | CC#CCN1C(=O)c2ccc(Cl)cc2Sc2cc(NC(=O)C3CCCO3)ccc21 (stereo not drawn) | > 6.30

Now from value to compound:

Row | pIC50 | SMILES
33 | > 6.30 | CC#CCN1C(=O)c2ccc(F)cc2Sc2cc(NC(=O)c3cccc(OC)c3)ccc21 [—CH2CCMe; 3-MeOPh; CF/CH; CH]
34 | > 6.30 | CC#CCN1C(=O)c2ccc(Cl)cc2Sc2cc(NC(=O)OCCOC)ccc21 [—CH2CCMe; O(CH2)2OMe; CCl/CH; CH]
35 | 5.30 to 6.00 | CC#CCN1C(=O)c2ccccc2Sc2cc(NC(=O)C3CNC(=O)C3)ccc21 (stereo not drawn) [—CH2CCMe; 2-oxo-pyrrolidin-4-yl; CH/CH; CH]
36 | > 6.30 | CC#CCN1C(=O)c2ccc(Cl)cc2Sc2cc(NC(=O)[C@H]3C[C@@H]3COC)cnc21 (relative stereo) [—CH2CCMe; trans-2-MeOCH2-cPr; CCl/CH; N]
37 | > 6.30 | CC#CCN1C(=O)c2ccccc2Sc2cc(NC(=O)CC3COC3)ccc21 [—CH2CCMe; (oxetan-3-yl)CH2; CH/CH; CH]
38 | > 6.30 | CO[C@H]1C[C@H](C(=O)Nc2ccc3c(c2)Sc2ccc(F)cc2C(=O)N3CC#CCl)C1 [—CH2CCCl; trans-3-MeOcBu; CH/CF; CH]
39 | > 6.30 | CC#CCN1C(=O)c2ccccc2Sc2cc(NC(=O)CCCO)ccc21 [—CH2CCMe; (CH2)3OH; CH/CH; CH]
40 | > 6.30 | CC#CCN1C(=O)c2ccc(Cl)cc2Sc2cc(NC(=O)C3COC3)ccc21 [—CH2CCMe; oxetan-3-yl; CCl/CH; CH]
41 | > 6.30 | CC#CCN1C(=O)c2ccccc2Sc2cc(NC(=O)C34CC(C)(C3)C4)ccc21
42 | > 6.30 | CC#CCN1C(=O)c2ccc(Cl)cc2Sc2cc(NC(=O)C3CC4(CC(=O)C4)C3)ccc21
43 | > 6.30 | CC#CCN1C(=O)c2ccccc2Sc2cc(NC(=O)OCCOC)ccc21 [—CH2CCMe; O(CH2)2OMe; CH/CH; CH]
44 | > 6.30 | CC#CCN1C(=O)c2ccc(Cl)cc2Sc2cc(NC(=O)C3CC3CO)cnc21 (racemic) [—CH2CCMe; trans-2-HOCH2-cPr; CCI/CH; N]
45 | > 6.30 | CON=C1CC2(C1)CC(C(=O)Nc1ccc3c(c1)Sc1ccc(F)cc1C(=O)N3CC#CCl)C2 (stereo not drawn)

Same assay, conditions: Table 9; HCT116, 72 hours; read-out: Activity

Row | pIC50 | SMILES
46 | > 6.30 | CC1c2ccccc2C(=O)N(CC#CC2CC2)c2ccc(NC(=O)C3CC4(CC(O)C4)C3)cc21 (stereo not drawn)

Same assay, conditions: cell viability assay; Table 10 analogs of scaffold drawing 45 defined by R2, R3, X/Y, W; read-out: Activity

Row | pIC50 | SMILES
47 | > 6.30 | CC#CCN1C(=O)c2ccc(Cl)cc2Sc2cc(NC(=O)C3CC4(CC(O)C4)C3)ccc21 (stereo not drawn)
48 | > 6.30 | CO[C@H]1C[C@H](C(=O)Nc2cnc3c(c2)Sc2ccccc2C(=O)N3CC#CC2CC2)C1 [—CH2CCcPr; trans-3-MeOcBu; CH/CH; N]

Reference: patent US20260097047A1, “Small molecule inhibitors of the ribosome biogenesis factor NVL2” (Board of Regents, The University of Texas System, priority 2023, published 2026)
